# Experiments:
# GFAP [1] = assay: GFAP immunofluorescence, morphometric analysis and cell counting in the dentate gyrus (Example 3); type: in vivo, C57BL/6J mice; details: restrained mice, oral co-treatment; vs vehicle-treated restrained mice
# Experimental: Mice after acclimatization and one week of handling were randomly divided into five groups (n=8/condition) and orally treated as follow: 1) control non-restrained mice treated with vehicle (PBS, pH 7.4); 2) restrained mice treated with vehicle; 3), restrained mice treated with a cotinine solution (5 mg/kg in PBS, pH 7.4) via gavage; 4) restrained mice treated with KO (143 mg/kg); 5) restrained mice treated with cotinine plus KO solution. Mice were started with treatments, the first day of restraint and continuously until euthanasia. Treatments were administered at the same time of the day, 30 min before restraint.
# For the immunohistochemistry (IHC) and fluorescent IHC (F-IHC) analysis the right hemisphere of each mouse brain was placed in 4% paraformaldehyde in PBS pH 7.4 at 4° C. for 24 h. The tissues were embedded in 2% agarose molds for vibratome sectioning.
# For the F-IHC, samples were washes 3 times for 7 min with Tris-buffered saline (TBS), pH 7.8. The primary antibody anti-GFAP (1:50, BioSB) was diluted in diluent buffer, containing TBS supplemented with 1% bovine serum albumin (BSA) and 0.2% Triton X-100, and incubated with the tissue sections overnight (ON) at 4° C. […] The samples were counterstained with Hoechst (1:1000) and mounted with fluorescence mounting medium (Prolong, Invitrogen). […]
# In each image, a region of interest (ROI) that represented the dentate gyrus was determined using free-hand drawing. For each ROI, the mean gray values (MGV), representing the area fraction with immunoreactivity for GFAP, were measured. To measure the fluorescence intensity of GFAP immunostaining in the dentate gyrus, maximum intensity projections of confocal z-stacks acquired from sagittal brain sections were converted into 8-bit greyscale images with 256 scales (pixel intensity 0 corresponding to no signal and 255 to maximal signal) by ImageJ software. […] For the GFAP+ cell counting, cell to be counted must had at least half of the cell nucleus visible on the edge of the ROI and cells were not included in the analysis if they were adherent to blood vessel walls.
# GFAP [2] = assay: Immunohistochemical analysis of GFAP expression, hippocampus and frontal cortex (Example 1); type: in vivo, C57BL/6 mice; details: RS mice treated with cotinine
# From the text: After treatments, the hippocampus and frontal cortex were investigated for changes in neuronal and glia cells architecture by Luxol blue staining, and cresyl violet staining. Also, the expression levels of the astrocyte marker GFAP in cells of the same areas by immunohistochemistry.
# After the behavioral testing, mice were euthanized and brains were removed and dissected. Each brain was divided into two parts, left and right hemispheres. The frontal cortex and hippocampus were dissected from left hemisphere on ice and quickly frozen for subsequent analyses at −80° C. The right hemispheres were post-fixed in 10% buffered formalin (pH7.4) for 48 hours, included in paraffin, sliced in 4 μm sections and mounted in slides for histological and immunohistochemical analysis. […]
# Three digital images of the slides immunostained for GFAP immunoreactivity (IR) were obtained of the hippocampus and frontal cortex using a digital camera attached to an inverted microscope at 40× magnification (Micrometrics, MilesCo Scientific, Princeton, Minn., USA) operated by software Micrometrics (Micrometrics SE Premium). To quantitate GFAP immunoreactivity the area of immunostaining was delimited and quantitated using the ImageJ software, provided by the National Institute of Health (NIH, Bethesda, […]., USA).
# [3] = tested on: mice subjected to restraint stress; assay: Open field test after restraint stress (Example 1, Experiment 1); type: in vivo, C57BL/6 mice; details: RS mice, IN cotinine 10 mg/ml, 25 min of testing; p=0.058
# Experimental: (§1) Mice were treated immediately after the 21 days of immobilization stress (6 h/day) until euthanasia. Mice (n=5-8/condition) received daily treatments with 1. PBS (phosphate buffer saline, pH 7.4) via intranasal (2×12 μl/nostril), 2. PBS via gavage (50 μl); 3. Cotinine dissolved in PBS via oral (gavage, (0.5 mg/kg; Cot 0.5); 4. Cotinine dissolved in PBS via intranasal (Cot IN, 10 mg/ml, 2×12 μl/nostril).
# (§2) To induce chronic stress, the restraint stress paradigm was used as previously described. Mice are immobilized in 50 ml falcon plastic tubes that were attached to mouse cages. The immobilization proceeded during 6 h from 9:00 AM to 3:00 PM in absence of treatments. Tubes have holes in the opposite side of the tube to allow the animal breathing and urination. Mice were almost completely immobilized for 6 h/day for 21 days after which they were permitted freely to move, eat and drink.
# OF is used to monitor locomotor activity. […] Several parameters including, total distance traveled, speed, rearing behavior and time spent in the center and peripheral zones (20 cm×20 cm) are measured to assess locomotor activity and behavioral changes induced by stress.
# GFAP+ astrocytes = assay: Morphology and fractal analysis of GFAP+ cells in the hippocampus (Example 2); type: in vivo, C57BL/6 male mice
# Experimental: For the IR analysis, for each mouse, three digital images were randomly selected at 40× magnifications in the areas of interest (hippocampus and frontal cortex) (n=5-6/condition). The images were taken using a digital camera attached to a light microscope (Micrometrics, MilesCo Scientific, Princeton, Minn., USA) connected to a camera operated by a commercial software (Micrometrics SE Premium). The determination of the area of the immunolabeling was calculated delimiting the IR areas using the ImageJ software (National Institute of Health, Bethesda, […]., USA). For all analyses, GFAP^+ astrocytes were selected randomly from the frontal cortex and the CA1, CA3 and dentate gyrus regions of the hippocampus and quantified. Using a digital camera on an inverted microscope, black and white images of GFAP^+ astrocytes were obtained and processed with Image J software. Using a 20× objective, cells were chosen randomly in the same area selected for immunostaining, and the binary overlay of a cell was created by thresholding. For all images, a threshold value was established at the level at which the binary overlay entirely enclosed the cell body and projections. All pixels above the threshold value were considered as belonging to the cell images. Finally, the binary silhouette of the whole cell was reduced to its one-pixel outline for estimation of the fractal dimensions with the FracLac 2.5 ImageJ plug-in (Karperien et al., 2013; Karperien and Jelinek, 2015)
# Fractal analysis was done on binary images by means of the dilation method (Schaffner and Ghesquiere, 2001). The slope of the regression line (S) is related to the fractal dimension (D) by D=1−S. Each pixel in the cell outline was replaced with a disk of a diameter fluctuating from 3-61 pixels and the area of the widened outline divided by the diameter of structuring element was plotted against this diameter on a log-log scale.
# the area of the cell body that is calculated as the two-dimensional cross-sectional area contained within the boundary of the cell body.
# The area of the convex polygon formed by connecting the tips of the longest astrocytic processes (convex hull area). Convex hull values indicate the size of the branching field of the astrocyte. The amount of physical space is defined in terms of convex-hull volume, surface area, area, and or perimeter.
# Measures heterogeneity and complements fractal dimension analysis in describing structural complexity (Karperien et al., 2013; Karperien and Jelinek, 2015; Schaffner and Ghesquiere, 2001).
# [4] = tested on: mice subjected to restraint stress; assay: Elevated plus maze after restraint stress (Example 1, Experiment 1); type: in vivo, C57BL/6 mice; details: RS mice, post-treatment with cotinine
# Experimental: as §1, §2
# Anxiety was assessed through the elevated plus maze (EPM). EPM is considered one of the best choices to test anxiolytic effects of drugs. This test is based on the observation that most of the time higher anxiety levels will diminish the time exploring new environments as a form to avoid danger (open arms).
# To determine the level of anxiety, mice were tested in the EPM. […]
# [5] = cotinine-treated restrained mice
structure (smiles),measurement,setting,value
"CN1C(=O)CC[C@H]1c1cccnc1 [Cotinine, (5S)-1-methyl-5-(3-pyridyl) pyrrolidin-2-one]",mean gray value (GFAP IR intensity) in the dentate gyrus,GFAP [1],significant increase of the IR intensity
same,number of GFAP+ cells (cell density) in the dentate gyrus,GFAP [1],significant increase of cell density
same,percent area fraction occupied by GFAP+ cells in the dentate gyrus,GFAP [1],significant increase in the GFAP+ fraction area
same,level of GFAP+ cells in the hippocampus and cortex (qualitative analysis),GFAP [2],recovery of this expression was observed
same,distance traveled in the open field test,[3],44±18 m
same,"GFAP+ cell area across CA1, CA3 and DG",GFAP+ astrocytes; [5],statistically indistinguishable from nonstressed controls
same,appearance of GFAP+ astrocytes in hippocampi and frontal cortices,GFAP+ astrocytes; [5],large GFAP^+ cells with longer and more complex arborization
same,"arbor area of astrocytes, DG",GFAP+ astrocytes; p<0.001 vs vehicle-treated restrained mice,"greater astrocytic arborization than vehicle-treated, restrained mice"
same,"fractal dimension (FD) of astrocytes, DG",GFAP+ astrocytes; p<0.05,"vehicle-treated, restrained mice had a significant reduction in FD of astrocytes in the DG when compared to cotinine-treated, restrained mice"
same,"lacunarity of astrocytes, DG",GFAP+ astrocytes; p<0.05,"vehicle-treated, restrained mice had reduced lacunarity of astrocytes relative to both their cotinine-treated, stressed"
same,"arbor area of astrocytes, CA3","GFAP+ astrocytes; p<0.05 vs non-stressed controls, p<0.01 vs vehicle-treated restrained",significantly more arbor area of astrocytes than non-stressed controls
same,"arbor area of astrocytes, CA1","GFAP+ astrocytes; p<0.05 vs non-stressed controls, p=0.075 vs vehicle-treated stressed",significantly more arbor area than the non-stressed controls
same,locomotor activity (distance traveled) in the EPM,[4]; Tukey p<0.01,reduced significantly the locomotor activity in the RS mice
same,rearing activity in the elevated plus maze,[4]; vs Ctrl non-restrained mice,did not show differences with Ctrl non-restrained mice

# From patent US11260050B2, “Combination of cotinine plus antioxidant for treatment-resistant depression and correction of astrocytes functional deficit induced by depression and other neuropathological” (UNIVERSIDAD SAN SEBASTIAN, priority 2017, dated 2022)
